# Experimental data taken from the NIST ThermoML archive (doi:10.1021/je800925v).
# ± gives the expanded uncertainty stated by the source.
# Experiment: xn = mol fraction of the nth substance listed
# Conditions: Liquid
compound,measurement,setting,value
CCCCCCCC [octane] + CCO,viscosity,"285.65 K, x2 = 0.602",0.7758 ± 0.026 mPa·s
same,mass density,"285.65 K, x2 = 0.691",741.5 ± 8.6 kg/m3
same,viscosity,"285.65 K, x2 = 0.691",0.8763 ± 0.027 mPa·s
same,mass density,"285.65 K, x2 = 0.807",753.3 ± 8.4 kg/m3
same,viscosity,"285.65 K, x2 = 0.807",1.002 ± 0.029 mPa·s
same,mass density,"285.65 K, x2 = 0.911",770.5 ± 8 kg/m3
same,viscosity,"285.65 K, x2 = 0.911",1.147 ± 0.031 mPa·s
same,mass density,"288.15 K, x2 = 0.095",698.9 ± 9.7 kg/m3
same,viscosity,"288.15 K, x2 = 0.095",0.5207 ± 0.022 mPa·s
same,mass density,"288.15 K, x2 = 0.192",702.2 ± 9.6 kg/m3
same,viscosity,"288.15 K, x2 = 0.192",0.5347 ± 0.023 mPa·s
same,mass density,"288.15 K, x2 = 0.294",708.1 ± 9.4 kg/m3
same,viscosity,"288.15 K, x2 = 0.294",0.5721 ± 0.023 mPa·s
same,mass density,"288.15 K, x2 = 0.399",712.9 ± 9.3 kg/m3
same,viscosity,"288.15 K, x2 = 0.399",0.615 ± 0.024 mPa·s
same,mass density,"288.15 K, x2 = 0.496",721 ± 9.1 kg/m3
same,viscosity,"288.15 K, x2 = 0.496",0.6805 ± 0.025 mPa·s
same,mass density,"288.15 K, x2 = 0.602",727.5 ± 9 kg/m3
same,viscosity,"288.15 K, x2 = 0.602",0.7453 ± 0.025 mPa·s
same,mass density,"288.15 K, x2 = 0.691",739.4 ± 8.7 kg/m3
same,viscosity,"288.15 K, x2 = 0.691",0.8411 ± 0.027 mPa·s
same,mass density,"288.15 K, x2 = 0.807",751.2 ± 8.4 kg/m3
same,viscosity,"288.15 K, x2 = 0.807",0.958 ± 0.029 mPa·s
same,mass density,"288.15 K, x2 = 0.911",768.4 ± 8 kg/m3
same,viscosity,"288.15 K, x2 = 0.911",1.095 ± 0.031 mPa·s
same,mass density,"290.65 K, x2 = 0.095",696.8 ± 9.7 kg/m3
same,viscosity,"290.65 K, x2 = 0.095",0.5072 ± 0.022 mPa·s
same,mass density,"290.65 K, x2 = 0.192",700.1 ± 9.6 kg/m3
same,viscosity,"290.65 K, x2 = 0.192",0.5195 ± 0.022 mPa·s
same,mass density,"290.65 K, x2 = 0.294",705.9 ± 9.5 kg/m3
same,viscosity,"290.65 K, x2 = 0.294",0.5541 ± 0.023 mPa·s
same,mass density,"290.65 K, x2 = 0.399",710.8 ± 9.4 kg/m3
same,viscosity,"290.65 K, x2 = 0.399",0.5946 ± 0.023 mPa·s
same,mass density,"290.65 K, x2 = 0.496",718.9 ± 9.2 kg/m3
same,viscosity,"290.65 K, x2 = 0.496",0.6543 ± 0.024 mPa·s
same,mass density,"290.65 K, x2 = 0.602",725.3 ± 9 kg/m3
same,viscosity,"290.65 K, x2 = 0.602",0.7168 ± 0.025 mPa·s
same,mass density,"290.65 K, x2 = 0.691",737.2 ± 8.8 kg/m3
same,viscosity,"290.65 K, x2 = 0.691",0.8071 ± 0.026 mPa·s
same,mass density,"290.65 K, x2 = 0.807",749.1 ± 8.5 kg/m3
same,viscosity,"290.65 K, x2 = 0.807",0.9164 ± 0.028 mPa·s
same,mass density,"290.65 K, x2 = 0.911",766.3 ± 8.1 kg/m3
same,viscosity,"290.65 K, x2 = 0.911",1.046 ± 0.03 mPa·s
same,mass density,"293.15 K, x2 = 0",705.6 ± 9.5 kg/m3
same,viscosity,"293.15 K, x2 = 0",0.5374 ± 0.023 mPa·s
same,mass density,"293.15 K, x2 = 0.095",694.7 ± 9.8 kg/m3
same,viscosity,"293.15 K, x2 = 0.095",0.4931 ± 0.022 mPa·s
same,mass density,"293.15 K, x2 = 0.192",698 ± 9.7 kg/m3
same,viscosity,"293.15 K, x2 = 0.192",0.5049 ± 0.022 mPa·s
same,mass density,"293.15 K, x2 = 0.294",703.8 ± 9.6 kg/m3
same,viscosity,"293.15 K, x2 = 0.294",0.5366 ± 0.023 mPa·s
same,mass density,"293.15 K, x2 = 0.399",708.6 ± 9.4 kg/m3
same,viscosity,"293.15 K, x2 = 0.399",0.5752 ± 0.023 mPa·s
same,mass density,"293.15 K, x2 = 0.496",716.8 ± 9.2 kg/m3
same,viscosity,"293.15 K, x2 = 0.496",0.6298 ± 0.024 mPa·s
same,mass density,"293.15 K, x2 = 0.602",723.2 ± 9.1 kg/m3
same,viscosity,"293.15 K, x2 = 0.602",0.6899 ± 0.025 mPa·s
same,mass density,"293.15 K, x2 = 0.691",735.1 ± 8.8 kg/m3
same,viscosity,"293.15 K, x2 = 0.691",0.7742 ± 0.026 mPa·s
same,mass density,"293.15 K, x2 = 0.807",746.9 ± 8.5 kg/m3
same,viscosity,"293.15 K, x2 = 0.807",0.8781 ± 0.027 mPa·s
same,mass density,"293.15 K, x2 = 0.911",764.1 ± 8.1 kg/m3
same,viscosity,"293.15 K, x2 = 0.911",0.9997 ± 0.029 mPa·s
same,mass density,"295.65 K, x2 = 0.095",692.6 ± 9.8 kg/m3
same,viscosity,"295.65 K, x2 = 0.095",0.4796 ± 0.022 mPa·s
same,mass density,"295.65 K, x2 = 0.192",695.9 ± 9.7 kg/m3
same,viscosity,"295.65 K, x2 = 0.192",0.4908 ± 0.022 mPa·s
same,mass density,"295.65 K, x2 = 0.294",701.7 ± 9.6 kg/m3
same,viscosity,"295.65 K, x2 = 0.294",0.5197 ± 0.022 mPa·s
same,mass density,"295.65 K, x2 = 0.399",706.5 ± 9.5 kg/m3
same,viscosity,"295.65 K, x2 = 0.399",0.5566 ± 0.023 mPa·s
same,mass density,"295.65 K, x2 = 0.496",714.7 ± 9.3 kg/m3
same,viscosity,"295.65 K, x2 = 0.496",0.6039 ± 0.024 mPa·s
same,mass density,"295.65 K, x2 = 0.602",721.1 ± 9.1 kg/m3
same,viscosity,"295.65 K, x2 = 0.602",0.6643 ± 0.024 mPa·s
same,mass density,"295.65 K, x2 = 0.691",732.9 ± 8.9 kg/m3
same,viscosity,"295.65 K, x2 = 0.691",0.7428 ± 0.025 mPa·s
same,mass density,"295.65 K, x2 = 0.807",744.7 ± 8.6 kg/m3
same,viscosity,"295.65 K, x2 = 0.807",0.8415 ± 0.027 mPa·s
same,mass density,"295.65 K, x2 = 0.911",762 ± 8.2 kg/m3
same,viscosity,"295.65 K, x2 = 0.911",0.956 ± 0.029 mPa·s
same,mass density,"298.15 K, x2 = 0",701.6 ± 9.6 kg/m3
same,viscosity,"298.15 K, x2 = 0",0.5087 ± 0.022 mPa·s
same,mass density,"298.15 K, x2 = 0.095",690.5 ± 9.9 kg/m3
same,viscosity,"298.15 K, x2 = 0.095",0.4675 ± 0.022 mPa·s
same,mass density,"298.15 K, x2 = 0.192",693.8 ± 9.8 kg/m3
same,viscosity,"298.15 K, x2 = 0.192",0.477 ± 0.022 mPa·s
same,mass density,"298.15 K, x2 = 0.294",699.6 ± 9.7 kg/m3
same,viscosity,"298.15 K, x2 = 0.294",0.5022 ± 0.022 mPa·s
same,mass density,"298.15 K, x2 = 0.399",704.3 ± 9.5 kg/m3
same,viscosity,"298.15 K, x2 = 0.399",0.5386 ± 0.023 mPa·s
same,mass density,"298.15 K, x2 = 0.496",712.6 ± 9.3 kg/m3
same,viscosity,"298.15 K, x2 = 0.496",0.5828 ± 0.023 mPa·s
same,mass density,"298.15 K, x2 = 0.602",718.9 ± 9.2 kg/m3
same,viscosity,"298.15 K, x2 = 0.602",0.6396 ± 0.024 mPa·s
same,mass density,"298.15 K, x2 = 0.691",730.8 ± 8.9 kg/m3
same,viscosity,"298.15 K, x2 = 0.691",0.7137 ± 0.025 mPa·s
same,mass density,"298.15 K, x2 = 0.807",742.6 ± 8.6 kg/m3
same,viscosity,"298.15 K, x2 = 0.807",0.8061 ± 0.026 mPa·s
same,mass density,"298.15 K, x2 = 0.911",759.8 ± 8.2 kg/m3
same,viscosity,"298.15 K, x2 = 0.911",0.925 ± 0.028 mPa·s
